Assay results reported in patent US20190111059A1, “COMPOSITIONS AND METHODS FOR TREATING AUTISM SPECTRUM DISORDER” (Marinus Pharmaceuticals, Inc., priority 2017, published 2019).
Counter-ions that a name gives are not always drawn.

Legend:
[1] = tested on: children with non-syndromic autism spectrum disorder (ASD) and language impairment; assay: Randomized placebo-controlled trial: Vineland Adaptive Behavior Scale (VABS); type: in vivo, human; details: higher = better; for VABS Daily living, estimated effect: calcium salt
Method: The Vineland Adaptive Behavior Scale 2nd Edition (“VABS”) is a reliable and valid measure of the ability to perform age-appropriate everyday skills though a 20-30 min structured interview with a caretaker. Standard scores from the communication, daily living, social and motor skills, and adaptive behavioral composite were analyzed. Standard scores have a mean of 100, standard deviation of 15 and range 20-160. […] This two-arm double-blind randomized placebo-controlled parallel study with a 1:1 allocation was performed at Arkansas Children's Research Institute (Little Rock, Ark., USA) from 4 Jun. 2012 to 22 Nov. 2013. Those confirmed to have language impairment were randomized to the folinic acid or placebo group and a fasting blood sample was obtained. Randomization was performed using a random number generator with a block size of four. The research pharmacists had exclusive access to the randomization allocation. After breakfast, the participants returned for language, developmental and behavioral assessments. Following these assessments the family was given the 12 weeks of the intervention and was instructed on its administration. Language, developmental and behavioral assessments were repeated after 12 weeks of treatment. The target dose of the intervention (INN: DL folinic acid calcium salt; USAN: leucovorin calcium) was 2 mg kg^−1 per day (maximum 50 mg per day) in two equally divided doses with half of the target dose given during the first 2 weeks. Dye-free, milk-product-free, vegetarian capsules were provided in three strengths (5, 10 and 25 mg) by Lee Silsby Compounding Pharmacy (Cleveland Heights, Ohio, USA). Certificate of analysis was provided for each capsule strength by an independent analytical service (Eagle Analytical Services, Houston, Tex., USA) for each batch of capsules produced. In all cases, potency was at least 99%. Secondary outcomes. Secondary outcome measures included the Ohio Autism Clinical Impression Scale (OACIS), Vineland Adaptive Behavior Scale 2nd Edition (VABS) Survey Interview Form and several questionnaires. Parents and teachers were asked to complete the Aberrant Behavior Checklist (ABC), Social Responsiveness Scale (SRS) and Behavioral Assessment System for Children 2nd Edition (BASC). Only parents were asked to complete the Autism Impact Measure (AIM) and Autism Symptoms Questionnaire (ASQ). Secondary outcome measures were analyzed using the mixed-model regression. Because of the large number of secondary outcomes, correction for multiple comparisons was conducted using the false discovery rate.

[2] = tested on: children with non-syndromic autism spectrum disorder (ASD) and language impairment; assay: Randomized placebo-controlled trial: Ohio Autism Clinical Impression Scale (OACIS); type: in vivo, human; details: lower = less severity
Method: The Ohio Autism Clinical Impression Scale (“OACIS”) is an observer-rated scale sensitive to clinically meaningful changes in ASD symptoms. […] Severity of each symptom was rated by the first author at baseline and at the final assessment by observing the entire assessment of verbal communication. In validation studies a 0.5-point change was considered clinically meaningful. This two-arm double-blind randomized placebo-controlled parallel study with a 1:1 allocation was performed at Arkansas Children's Research Institute (Little Rock, Ark., USA) from 4 Jun. 2012 to 22 Nov. 2013. Those confirmed to have language impairment were randomized to the folinic acid or placebo group and a fasting blood sample was obtained. Randomization was performed using a random number generator with a block size of four. The research pharmacists had exclusive access to the randomization allocation. After breakfast, the participants returned for language, developmental and behavioral assessments. Following these assessments the family was given the 12 weeks of the intervention and was instructed on its administration. Language, developmental and behavioral assessments were repeated after 12 weeks of treatment. The target dose of the intervention (INN: DL folinic acid calcium salt; USAN: leucovorin calcium) was 2 mg kg^−1 per day (maximum 50 mg per day) in two equally divided doses with half of the target dose given during the first 2 weeks. Dye-free, milk-product-free, vegetarian capsules were provided in three strengths (5, 10 and 25 mg) by Lee Silsby Compounding Pharmacy (Cleveland Heights, Ohio, USA). Certificate of analysis was provided for each capsule strength by an independent analytical service (Eagle Analytical Services, Houston, Tex., USA) for each batch of capsules produced. In all cases, potency was at least 99%. Secondary outcomes. Secondary outcome measures included the Ohio Autism Clinical Impression Scale (OACIS), Vineland Adaptive Behavior Scale 2nd Edition (VABS) Survey Interview Form and several questionnaires. Parents and teachers were asked to complete the Aberrant Behavior Checklist (ABC), Social Responsiveness Scale (SRS) and Behavioral Assessment System for Children 2nd Edition (BASC). Only parents were asked to complete the Autism Impact Measure (AIM) and Autism Symptoms Questionnaire (ASQ). Secondary outcome measures were analyzed using the mixed-model regression. Because of the large number of secondary outcomes, correction for multiple comparisons was conducted using the false discovery rate.

[3] = vs placebo, mixed-model regression
[4] = 2 mg kg^−1 per day, 12 weeks, baseline 4.4

Nc1nc2c(c(=O)[nH]1)N(C=O)C(CNc1ccc(C(=O)N[C@@H](CCC(=O)O)C(=O)O)cc1)CN2 (mixture of isomers) [Folinic acid, DL folinic acid calcium salt]
VABS Social skills, 12-week assessment mean ([1]; 2 mg kg^−1 per day, 12 weeks, baseline 64.4): 68.3 Standard Score
VABS Daily living, 12-week assessment mean ([1]; 2 mg kg^−1 per day, 12 weeks, baseline 64.6): 69.2 Standard Score
VABS Adaptive behavior, 12-week assessment mean ([1]; 2 mg kg^−1 per day, 12 weeks, baseline 64.8): 67.7 Standard Score
VABS Communication, 12-week assessment mean ([1]; 2 mg kg^−1 per day, 12 weeks, baseline 66.2): 68.3 Standard Score
VABS Motor skills, 12-week assessment mean ([1]; 2 mg kg^−1 per day, 12 weeks, baseline 78.9): 81.7 Standard Score
VABS Adaptive behavior, estimated effect [1, 3]: 0.3 Standard Score
VABS Communication, estimated effect [1, 3]: 0.2 Standard Score
VABS Motor skills, estimated effect [1, 3]: 0.1 Standard Score
VABS Social skills, estimated effect [1, 3]: 0.2 Standard Score
VABS Daily living, estimated effect [1, 3]: 0.5 Standard Score
VABS Daily living, estimated effect ([1]; vs placebo, mixed-model regression, listed as folinic acid): significantly improved
OACIS Sensory sensitivity, 12-week assessment mean ([2]; 2 mg kg^−1 per day, 12 weeks, baseline 1.6): 1.4 Severity
OACIS Restricted interest, 12-week assessment mean ([2]; 2 mg kg^−1 per day, 12 weeks, baseline 2.3): 2.0 Severity
OACIS Anxiety, 12-week assessment mean ([2]; 2 mg kg^−1 per day, 12 weeks, baseline 2.5): 2.3 Severity
OACIS Repetitive behavior, 12-week assessment mean ([2]; 2 mg kg^−1 per day, 12 weeks, baseline 3.2): 2.5 Severity
OACIS Non-verbal communication, 12-week assessment mean ([2]; 2 mg kg^−1 per day, 12 weeks, baseline 3.6): 3.3 Severity
OACIS Aberrant behavior, 12-week assessment mean ([2]; 2 mg kg^−1 per day, 12 weeks, baseline 3.8): 3.4 Severity
OACIS Hyperactivity, 12-week assessment mean ([2]; 2 mg kg^−1 per day, 12 weeks, baseline 4.1): 3.8 Severity
OACIS Social, 12-week assessment mean ([2]; 2 mg kg^−1 per day, 12 weeks, baseline 4.3): 3.8 Severity
OACIS Autistic behavior, 12-week assessment mean [2, 4]: 4.0 Severity
OACIS Verbal communication, 12-week assessment mean [2, 4]: 3.8 Severity
OACIS Aberrant behavior, estimated effect [2, 3]: −0.3 Severity
OACIS Anxiety, estimated effect [2, 3]: −0.1 Severity
OACIS Autistic behavior, estimated effect [2, 3]: −0.2 Severity
OACIS Hyperactivity, estimated effect [2, 3]: −0.3 Severity
OACIS Non-verbal communication, estimated effect [2, 3]: −0.0 Severity
OACIS Repetitive behavior, estimated effect [2, 3]: −0.4 Severity
OACIS Restricted interest, estimated effect [2, 3]: −0.2 Severity
OACIS Sensory sensitivity, estimated effect [2, 3]: −0.3 Severity
OACIS Social, estimated effect [2, 3]: −0.1 Severity
OACIS Verbal communication, estimated effect [2, 3]: −0.2 Severity
